Values after ≈ are worked out from the molar mass of the structure shown.
Assays:
Assay type in all cases: functional
[1] = tested on: Mycobacterium tuberculosis; assay: Antitubercular activity against rifampicin-resistant Mycobacterium tuberculosis after 21 days by two fold agar dilution method; settings: 504 h
[2] = tested on: Mycobacterium tuberculosis; assay: Potency index, ratio of MIC for LVFX to MIC for test compound for antitubercular activity against rifampicin-resistant Mycobacterium tuberculosis after 21 days by two fold agar dilution method
[3] = tested on: Mycobacterium tuberculosis; assay: Potency index, ratio of MIC for GTFX to MIC for test compound for antitubercular activity against rifampicin-resistant Mycobacterium tuberculosis after 21 days by two fold agar dilution method
[4] = tested on: Mycobacterium tuberculosis; assay: Potency index, ratio of MIC for rifampicin to MIC for test compound for antitubercular activity against rifampicin-resistant Mycobacterium tuberculosis after 21 days by two fold agar dilution method
[5] = tested on: Mycobacterium tuberculosis; assay: Potency index, ratio of MIC for isoniazid to MIC for test compound for antitubercular activity against rifampicin-resistant Mycobacterium tuberculosis after 21 days by two fold agar dilution method
[6] = tested on: Mycobacterium tuberculosis; assay: Antibacterial activity against multidrug resistant Mycobacterium tuberculosis ATTC 27294 by Alamar Blue assay
[7] = tested on: Mycobacterium tuberculosis; assay: Antibacterial activity against multidrug resistant Mycobacterium tuberculosis after 7 days by two fold dilution assay; settings: 168 h

In the case of `C[C@H]1COc2c(N3C[C@H]4CCCN[C@H]4C3)c(F)cc3c(=O)c(C(=O)O)cn1c23`, the MIC [1] is reported as 0.2 to 1.7 µg/mL (≈ 0.516 to 4.39 µM), the Ratio [2] is reported as “>=2.7 - 250” and the Ratio [3] is reported as “>=2.7 - 250”. For the same compound, the Ratio [4] was “>=2.7 - 250” and the Ratio [5] was “>=2.7 - 250”.

In the case of `O=C(O)c1cn(C2CC2)c2cc(N3CCNCC3)c(F)cc2c1=O` [CIPROFLOXACIN], the MIC [6] is reported as 0.1 to 0.6 µg/mL (≈ 0.302 to 1.81 µM).

`COc1c(N2CCNC(C)C2)c(F)cc2c(=O)c(C(=O)O)cn(C3CC3)c12` (stereo not given) [GATIFLOXACIN] showed an MIC [6] of 0.1 to 0.6 µg/mL (≈ 0.266 to 1.6 µM).

In the case of `NNC(=O)c1ccncc1` [ISONIAZID], the MIC [7] is reported as over 128 µg/mL.

In the case of `COc1c(N2C[C@@H]3CCCN[C@@H]3C2)c(F)cc2c(=O)c(C(=O)O)cn(C3CC3)c12` [MOXIFLOXACIN], the MIC [6] is reported as 0.1 to 0.6 µg/mL (≈ 0.249 to 1.49 µM).

`CO[C@H]1/C=C/O[C@@]2(C)Oc3c(C)c(O)c4c(O)c(c(/C=N/N5CCN(C)CC5)c(O)c4c3C2=O)NC(=O)/C(C)=C\C=C\[C@H](C)[C@H](O)[C@@H](C)[C@@H](O)[C@@H](C)[C@H](OC(C)=O)[C@@H]1C` [RIFAMPIN] gave an MIC [7] of 32 µg/mL (≈ 38.9 µM).

Reference: ChEMBL document CHEMBL4229334, “Fluoroquinolone derivatives and their anti-tubercular activities” (Eur J Med Chem, 2018)
